Data published in patent publication US9737559B2, “Synergistic anti-diabetic compositions” (Ozstar Therapeutics Pty Ltd, priority 2011, dated 2017).

Tests used:
Assay type in all cases: in vivo, human
[1] = system: patient with T2DM; assay: Gliclazide/inulin combination therapy, extended case report: FBG, HA1C and lipid profiles; settings: Gliclazide 30 mg once daily for nearly a decade, before inulin
Source text: This patient began the combination therapy with a commercially available inulin (Cl) as previously described in PCT/AU2011/000622, the contents of which are incorporated herein in their entirety. Various blood parameter measurements were as described PCT/AU2011/000622.

[2] = system: patient with T2DM; assay: Glimepiride/inulin combination therapy, T2DM case report, FBG
Procedure: Doctor recommended diet-only treatment. […] The dose was increased in a 1 mg increment and currently this patient is taking 4 mg once daily Glimepiride. [table] Blood sugar level was determined using Accu-Chek Performa (Roche, Mannheim, Germany) device (CAT/TYP 04680464003 mmol/L and 55405079196) according to manufacturer instructions. During baseline measurements of FBG levels, patient was on Glimepiride at the dose of 4 mg once daily.

[3] = system: patient with T2DM; assay: Glipizide/inulin combination therapy, T2DM case report, FBG
Procedure: person, with body mass index of 29 classified as overweight, with the family history of T2DM.
[…] the patient was diagnosed with T2DM. Doctor recommended diet-only treatment. […] due to increased FBG levels the patient was treated with Glipizide (5 mg/day, 5 mg once daily). The dose was increased in a 5 mg increment and currently this patient is taking 15 mg/day, 5 mg three times a day, Glipizide.
Blood sugar level was determined using Accu-Chek Performs (Roche, Mannheim, Germany) device (CAT/TYP 04680464002 mmol/L and 55403057614) according to manufacturer instructions.
During baseline measurements of FBG level, patient was on Glipizide at the dose of 15 mg per day.
inulin introduced at 3 g/day (1 g with each meal, 3 times a day) for one week. Inulin amount was increased to 6 g/day (2 g with each meal, 3 times a day) at week 2, 9 g/day (3 g with each meal, 3 times a day) at week 3 and 12 g/day (4 g with each meal, 3 times a day) at week 4.
Patient continued taking inulin with meal at 4 g/meal (12 gr/day total).

For `Cc1ccc(S(=O)(=O)NC(=O)NN2CC3CCCC3C2)cc1` (centres unmarked) [Gliclazide], the blood glucose levels [1] was “above 9 mmol/L”.
`CCC1=C(C)CN(C(=O)NCCc2ccc(S(=O)(=O)NC(=O)N[C@H]3CC[C@H](C)CC3)cc2)C1=O` [Glimepiride] was tested, and the FBG at baseline ([2]; Glimepiride 4 mg once daily, no inulin, June 2011) was roughly 8 mmol/L and the “FBG level prior to inulin combination therapy” value ([2]; Glimepiride monotherapy, a couple of years prior to inulin) was “above 7 mmol/L”.
In the case of `Cc1cnc(C(=O)NCCc2ccc(S(=O)(=O)NC(=O)NC3CCCCC3)cc2)cn1` [Glipizide], the FBG at baseline ([3]; Glipizide 15 mg per day, no inulin, July 2011) is reported as roughly 6.5 mmol/L and the “FBG level prior to inulin combination therapy” value ([3]; Glipizide monotherapy, a couple of years prior to inulin) is reported as “around 7 mmol/L”.
